The target of one assay is T1, BRAF G466V (Homo sapiens, UniProt P15056, G466V).
T1 construct: expressed in transfected cells
The assay is described as follows: Cellular assay of target protein degradation, T-Rex 293 cells stably transfected with HA-BRAF G466V (HA immunofluorescence, high content imaging). The note with it: T-Rex 293 HA-BRAF G466V; for DC50: half maximal degradation, read-out: BRaf G466V DC50; for Dmax: maximum degradation observed. In kind it is cell-based. Summed up:
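HA-BRAF G466V levels were read by HA immunofluorescence and high-content imaging after 24 h compound exposure (final 30 nM–3 pM, 0.1% DMSO, 37 °C). Expression was induced with 0.75 ng/mL doxycycline. Outputs: half-maximal degradation concentration (DC50) and maximal degradation (Dmax) relative to control.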

Another assay has as its target T2, BRAF V600E (Homo sapiens, UniProt P15056, V600E).
T2 construct: expressed in transfected cells
In words: Cellular assay of target protein degradation, T-Rex 293 cells stably transfected with HA-BRAF_V600E (HA immunofluorescence, high content imaging). In kind it is cell-based. Conditions: T-Rex 293 HA-BRAF V600E; for DC50: half maximal degradation, read-out: BRaf V600E DC50; for Dmax: maximum degradation observed. The method, boiled down:
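HA immunofluorescence on fixed cells, imaged by high-content reader, measured loss of HA-BRAF V600E in stably transfected T-Rex 293 cells induced with 1 ng/mL doxycycline. Compounds were applied for 24 h at 37 °C (final 0.1 nM–1 μM, 0.1% DMSO); DC50 and Dmax (% of control) were reported.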

Each structure is given as a SMILES string.

The term DC50 denotes the midpoint of the concentration-degradation curve. By Dmax is commonly meant the largest share of the target that was removed. A low value points to shallow degradation.

T1 sequence (P15056 whole entry G466V): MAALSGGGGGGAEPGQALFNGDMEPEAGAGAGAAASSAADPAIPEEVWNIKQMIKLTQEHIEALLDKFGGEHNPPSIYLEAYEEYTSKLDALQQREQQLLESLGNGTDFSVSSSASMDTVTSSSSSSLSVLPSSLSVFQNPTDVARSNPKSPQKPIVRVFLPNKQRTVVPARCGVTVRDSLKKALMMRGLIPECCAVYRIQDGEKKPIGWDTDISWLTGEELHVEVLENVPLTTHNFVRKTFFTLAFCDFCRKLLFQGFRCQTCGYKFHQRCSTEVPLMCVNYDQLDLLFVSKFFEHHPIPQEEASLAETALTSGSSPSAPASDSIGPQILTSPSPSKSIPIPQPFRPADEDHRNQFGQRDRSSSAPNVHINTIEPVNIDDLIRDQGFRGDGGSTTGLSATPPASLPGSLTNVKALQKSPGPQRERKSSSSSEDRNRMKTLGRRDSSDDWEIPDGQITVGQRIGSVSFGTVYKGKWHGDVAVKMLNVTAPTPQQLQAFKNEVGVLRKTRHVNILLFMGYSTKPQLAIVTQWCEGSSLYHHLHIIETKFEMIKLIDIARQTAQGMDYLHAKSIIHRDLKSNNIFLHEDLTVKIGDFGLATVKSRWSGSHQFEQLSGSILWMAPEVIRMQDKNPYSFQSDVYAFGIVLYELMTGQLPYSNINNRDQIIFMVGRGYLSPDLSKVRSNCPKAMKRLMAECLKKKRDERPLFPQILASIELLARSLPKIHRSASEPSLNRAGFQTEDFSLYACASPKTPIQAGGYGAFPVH
T2 sequence (P15056 whole entry V600E): as the sequence (P15056 whole entry G466V) above, with V466G, V600E counted along it

As for `COc1cc(N2CC3(CN(CC4CCN(c5ccc(-c6cnc7[nH]cc(C(=O)c8c(F)ccc(NS(=O)(=O)N9CC[C@@H](F)C9)c8F)c7c6)cc5)CC4)C3)C2)cc(F)c1C(=O)N[C@H]1CCC(=O)NC1=O` [Compound 347, 4-(6-{[1-(4-{3-[2,6-difluoro-3-({[(3R)-3-fluoropyrrolidin-1-yl]sulfonyl}amino)benzoyl]-1H-pyrrolo[2,3-b]pyridin-5-yl}phenyl)piperidin-4-yl]methyl}-2,6-diazaspiro[3.3]heptan-2-yl)-N-[(3S)-2,6-dioxopiperidin-3-yl]-2-fluoro-6-methoxybenzamide], on BRAF G466V, the DC50 is 1 to 10 nM and the Dmax is greater than 70%. For the same molecule, at BRAF V600E, the DC50 fell in the range of 5 to 50 nM and the Dmax fell in the range of 35 to 70%.
On the same counts, the results for `COc1cc(N2CC3(CN(CC4CCN(c5ccc(-c6cnc7[nH]cc(C(=O)c8c(F)ccc(NS(=O)(=O)N9CC[C@@H](F)C9)c8F)c7c6)cc5)CC4)C3)C2)cc(F)c1C(=O)NC1CCC(=O)NC1=O` (stereo partly drawn) [Compound 348, 4-(6-{[1-(4-{3-[2,6-difluoro-3-({[(3R)-3-fluoropyrrolidin-1-yl]sulfonyl}amino)benzoyl]-1H-pyrrolo[2,3-b]pyridin-5-yl}phenyl)piperidin-4-yl]methyl}-2,6-diazaspiro[3.3]heptan-2-yl)-N-(2,6-dioxopiperidin-3-yl)-2-fluoro-6-methoxybenzamide] are 1 to 10 nM, greater than 70%, 5 to 50 nM and 35 to 70%.
On to `O=C1CC[C@H](NC(=O)c2ccc(OCCCCN3CCN(c4ccc(-c5cnc6[nH]cc(C(=O)c7c(F)ccc(NS(=O)(=O)N8CC[C@@H](F)C8)c7F)c6c5)cc4)CC3)cc2F)C(=O)N1` [Compound 349, 4-{4-[4-(4-{3-[2,6-difluoro-3-({[(3R)-fluoropyrrolidin-1-yl]sulfonyl}amino)benzoyl]-1H-pyrrolo[2,3-b]pyridin-5-yl}phenyl)piperazin-1-yl]butoxy}-N-[(3S)-2,6-dioxopiperidin-3-yl]-2-fluorobenzamide], for which the DC50 on BRAF G466V is greater than 30 nM. At BRAF V600E, the DC50 is greater than 500 nM and the Dmax was greater than 70%.
The corresponding values for `O=C1CCC(NC(=O)c2ccc(OCCCCN3CCN(c4ccc(-c5cnc6[nH]cc(C(=O)c7c(F)ccc(NS(=O)(=O)N8CC[C@@H](F)C8)c7F)c6c5)cc4)CC3)cc2F)C(=O)N1` (stereo partly drawn) [Compound 350, 4-{4-[4-(4-{3-[2,6-difluoro-3-({[(3R)-3-fluoropyrrolidin-1-yl]sulfonyl}amino)benzoyl]-1H-pyrrolo[2,3-b]pyridin-5-yl}phenyl)piperazin-1-yl]butoxy}-N-(2,6-dioxopiperidin-3-yl)-2-fluorobenzamide] are greater than 30 nM, 50 to 500 nM and less than 35%.
As for `O=C1CC[C@H](NC(=O)c2ccc(N3CC4(CN(CC5CCN(c6ccc(-c7cnc8[nH]cc(C(=O)c9c(F)ccc(NS(=O)(=O)N%10CCC(F)(F)C%10)c9F)c8c7)cc6)CC5)C4)C3)cc2F)C(=O)N1` [Compound 351, 4-{6-[(1-{4-[3-(3-{[(3,3-difluoropyrrolidin-1-yl)sulfonyl]amino}-2,6-difluorobenzoyl)-1H-pyrrolo[2,3-b]pyridin-5-yl]phenyl}piperidin-4-yl)methyl}-2,6-diazaspiro[3.3]heptan-2-yl}-N-[(3S)-2,6-dioxopiperidin-3-yl]-2-fluorobenzamide], on BRAF G466V, the 50% degradation concentration (DC50) was 1 to 10 nM and the Dmax was 35 to 70%. In addition, on BRAF V600E, the DC50 is 5 to 50 nM and the Dmax lay in the range of 35 to 70%.
With `COc1cc(N2CCC(CN3CC4(C3)CN(c3ccc(-c5cnc6[nH]cc(C(=O)c7c(F)ccc(NS(=O)(=O)N8CC[C@@H](F)C8)c7F)c6c5)cc3)C4)CC2)ccc1C(=O)N[C@H]1CCC(=O)NC1=O` [Compound 352, 4-(4-{[6-(4-{3-[2,6-difluoro-3-({[(3R)-3-fluoropyrrolidin-1-yl]sulfonyl}amino)benzoyl]-1H-pyrrolo[2,3-b]pyridin-5-yl}phenyl)-2,6-diazaspiro[3.3]heptan-2-yl]methyl}piperidin-1-yl)-N-[(3S)-2,6-dioxopiperidin-3-yl]-2-methoxybenzamide], at BRAF G466V, the DC50 lay within 1 to 10 nM and the Dmax is greater than 70%. Besides, on BRAF V600E, the DC50 is 5 to 50 nM and the Dmax fell in the range of 35 to 70%.
On the same counts, the results for `O=C1CC[C@H](NC(=O)c2ccc(N3CCC(CN4CC5(C4)CN(c4ccc(-c6cnc7[nH]cc(C(=O)c8c(F)ccc(NS(=O)(=O)N9CC[C@@H](F)C9)c8F)c7c6)cc4)C5)CC3)cn2)C(=O)N1` [Compound 353, 5-(4-{[6-(4-{3-[2,6-difluoro-3-({[(3R)-3-fluoropyrrolidin-1-yl]sulfonyl}amino)benzoyl]-1H-pyrrolo[2,3-b]pyridin-5-yl}phenyl)-2,6-diazaspiro[3.3]heptan-2-yl]methyl}piperidin-1-yl)-N-[(3S)-2,6-dioxopiperidin-3-yl]pyridine-2-carboxamide] are 1 to 10 nM, 35 to 70%, 5 to 50 nM and 35 to 70%.
`O=C1CCC(NC(=O)c2ccc(N3CCC(CN4CC5(C4)CN(c4ccc(-c6cnc7[nH]cc(C(=O)c8c(F)ccc(NS(=O)(=O)N9CC[C@@H](F)C9)c8F)c7c6)cc4)C5)CC3)cn2)C(=O)N1` (stereo partly drawn) [Compound 354, 5-(4-{[6-(4-{3-[2,6-difluoro-3-({[(3R)-3-fluoropyrrolidin-1-yl]sulfonyl}amino)benzoyl]-1H-pyrrolo[2,3-b]pyridin-5-yl}phenyl)-2,6-diazaspiro[3.3]heptan-2-yl]methyl}piperidin-1-yl)-N-(2,6-dioxopiperidin-3-yl)pyridine-2-carboxamide]: at BRAF G466V, the DC50 lay within 1 to 10 nM and the Dmax was less than 35%. On BRAF V600E, the DC50 is 5 to 50 nM and the Dmax is less than 35%.
With `O=C1CC[C@H](NC(=O)c2ccc(CCCN3CC4(C3)CN(c3ccc(-c5cnc6[nH]cc(C(=O)c7c(F)ccc(NS(=O)(=O)N8CC[C@@H](F)C8)c7F)c6c5)cc3)C4)cc2F)C(=O)N1` [Compound 355, 4-{3-[6-(4-{3-[2,6-difluoro-3-({[(3R)-3-fluoropyrrolidin-1-yl]sulfonyl}amino)benzoyl]-1H-pyrrolo[2,3-b]pyridin-5-yl}phenyl)-2,6-diazaspiro[3.3]heptan-2-yl]propyl}-N-[(3S)-2,6-dioxopiperidin-3-yl]-2-fluorobenzamide], the DC50 on BRAF G466V is greater than 30 nM. Besides, on BRAF V600E, the DC50 lay within 50 to 500 nM and the Dmax was in the range of 35 to 70%.
In the case of `O=C1CCC(NC(=O)c2ccc(CCCN3CC4(C3)CN(c3ccc(-c5cnc6[nH]cc(C(=O)c7c(F)ccc(NS(=O)(=O)N8CC[C@@H](F)C8)c7F)c6c5)cc3)C4)cc2F)C(=O)N1` (stereo partly drawn) [Compound 356, 4-{3-[6-(4-{3-[2,6-difluoro-3-({[(3R)-3-fluoropyrrolidin-1-yl]sulfonyl}amino)benzoyl]-1H-pyrrolo[2,3-b]pyridin-5-yl}phenyl)-2,6-diazaspiro[3.3]heptan-2-yl]propyl}-N-(2,6-dioxopiperidin-3-yl)-2-fluorobenzamide], the results for the DC50 on BRAF G466V and at BRAF V600E were greater than 30 nM and greater than 500 nM, respectively.
As for `COc1cc(N2CCC(CN3CCN(c4ccc(-c5cnc6[nH]cc(C(=O)c7c(F)ccc(NS(=O)(=O)N8CC[C@@H](F)C8)c7F)c6c5)cc4)CC3)CC2)ccc1C(=O)N[C@H]1CCC(=O)NC1=O` [Compound 357, 4-(4-{[4-(4-{3-[2,6-difluoro-3-({[(3R)-3-fluoropyrrolidin-1-yl]sulfonyl}amino)benzoyl]-1H-pyrrolo[2,3-b]pyridin-5-yl}phenyl)piperazin-1-yl]methyl}piperidin-1-yl)-N-[(3S)-2,6-dioxopiperidin-3-yl]-2-methoxybenzamide], on BRAF G466V, the DC50 lay in the range of 1 to 10 nM and the Dmax is greater than 70%. For the same molecule, at BRAF V600E, the DC50 is 5 to 50 nM and the Dmax fell in the range of 35 to 70%.
The corresponding values for `COc1cc(N2CCC(CN3CCN(c4ccc(-c5cnc6[nH]cc(C(=O)c7c(F)ccc(NS(=O)(=O)N8CC[C@@H](F)C8)c7F)c6c5)cc4)CC3)CC2)ccc1C(=O)NC1CCC(=O)NC1=O` (stereo partly drawn) [Compound 358, 4-(4-{[4-(4-{3-[2,6-difluoro-3-({[(3R)-3-fluoropyrrolidin-1-yl]sulfonyl}amino)benzoyl]-1H-pyrrolo[2,3-b]pyridin-5-yl}phenyl)piperazin-1-yl]methyl}piperidin-1-yl)-N-(2,6-dioxopiperidin-3-yl)-2-methoxybenzamide] are 1 to 10 nM, greater than 70%, 5 to 50 nM and 35 to 70%.
On the same counts, the results for `COc1cc(N2CCN(CC3CCN(c4ccc(-c5cnc6[nH]cc(C(=O)c7c(F)ccc(NS(=O)(=O)N8CC[C@@H](F)C8)c7F)c6c5)cc4)CC3)CC2)ccc1C(=O)N[C@H]1CCC(=O)NC1=O` [Compound 359, 4-(4-{[1-(4-{3-[2,6-difluoro-3-({[(3R)-3-fluoropyrrolidin-1-yl]sulfonyl}amino)benzoyl]-1H-pyrrolo[2,3-b]pyridin-5-yl}phenyl)piperidin-4-yl]methyl}piperazin-1-yl)-N-[(3S)-2,6-dioxopiperidin-3-yl]-2-methoxybenzamide] are 1 to 10 nM, greater than 70%, 5 to 50 nM and 35 to 70%.

The values above are taken from US12180193B2, “Accelerating fibrosarcoma protein degrading compounds and associated methods of use” (Arvinas Operations, Inc., priority 2020, dated 2024).
